Assay results taken from PMC6271731, “Multitarget Molecular Hybrids of Cinnamic Acids” (Molecules, 2014).

Target: T1, pancreatic bovine trypsin (Bos taurus, UniProt P00760)
T1 construct: purchased Sigma Chemical, Co. (St. Louis, MO, USA)
T1 sequence (P00760 24-246): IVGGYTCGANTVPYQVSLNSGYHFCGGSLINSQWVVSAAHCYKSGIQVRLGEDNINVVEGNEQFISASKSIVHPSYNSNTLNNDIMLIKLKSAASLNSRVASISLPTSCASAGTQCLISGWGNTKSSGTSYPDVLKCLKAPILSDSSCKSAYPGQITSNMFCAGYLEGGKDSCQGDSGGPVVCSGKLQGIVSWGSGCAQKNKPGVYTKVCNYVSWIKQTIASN
Assay: Inhibition of trypsin induced proteolysis in vitro
Assay type: biochemical
Settings: bovine albumin substrate, pH 7.6, 37 °C; read-out: IC50 μM Trypsin Inh.
Source text: All chemicals, solvents, chemical and biochemical reagents were of analytical grade and purchased from commercial sources (Merck, Merck KGaA, Darmstadt, Germany, Fluka Sigma-Aldrich Laborchemikalien GmbH, Hannover, Germany, Alfa Aesar, Karlsruhe, Germany and Sigma, St. Louis, MO, USA). Soybean lipoxygenase, pancreatic bovine trypsin, sodium linoleate, free radical DPPH and 2,2-azinobis-2-methyl-propanimidamine HCl (AAPH) were obtained from Sigma Chemical, Co. (St. Louis, MO, USA), carrageenin, type K, was commercially available. All starting materials were obtained from commercial sources and used without further purification.
The test was carried out according to a modified Kunitz method. Bovine albumin was used as substrate for trypsin. The reaction mixture consisted of 0.075 mg/mL trypsin (200 μL) and 780 μL of phosphate buffer pH 7.6 (including the tested compounds (20 μL in DMSO, final concentration 100 μM) preincubated at 37 °C for 20 min and then 1 mL of albumin (stock solution 6 g/100 mL in phosphate buffer 0.1 M, pH 7.6) was added and incubated at 37 °C for 30 min. After the incubation 1 mL of 5% trichloroacetic acid was added to the incubated solution to stop the enzyme’s reaction and allowed to set at room temperature for 1 h. Then the solution was filtered by filter paper and the absorption of the filtered solution was measured at 280 nm. Salicylic acid was used as a reference compound (Table 1).

## CC(=O)Nc1ccc(OC(=O)/C=C/c2cccc(Oc3ccccc3)c2)cc1 [Compound 2a, (E)-4-Acetamidophenyl 3-(3-phenoxyphenyl)acrylate]
  IC50: 10 µM
